Tests used:
[1] = system: folate receptors on AT1 cells; test: Folic acid binding, Resonant Sensors Bioassay (peak shift); set-up: species or system human; conditions: 0-15 μM, 3 hours
Experimental: (§1) The binding of folic acid to folate receptors was studied using Resonant Sensors Bioassay system (e.g., available from Resonant Sensors Inc. (RSI), located in Arlington, Tex.). A549 and H460 lung cancer cells as well as AT1 cells were seeded at a density of 10,000 cells/well in RSI sensor 96-well plates, which were incubated at […] for 24 hours to allow cell attachment. For folic acid binding efficiency studies, the cells were incubated with folic acid at varying concentrations (i.e., 0, 0.1, 1, 5, 10, 15 μM) for 3 hours in the RSI system and peak shift with cell binding over time was studied.

[2] = system: folate receptors on A549 lung cancer cells; test: as above; conditions: 0-15 μM, 3 hours
Experimental: as §1

[3] = system: folate receptors on H460 lung cancer cells; test: as above; conditions: 0-15 μM, 3 hours
Experimental: as §1

[4] = system: human dermal fibroblasts (HDFs); test: 24-hour cytocompatibility (MTS and Picogreen dsDNA); assay type: cell-based; conditions: 10 μM
Experimental: (§2) Human dermal fibroblasts (HDFs) and AT1 cells were seeded at a density of 5000 cells/well in a 96 well plate and allowed to attach at 37° C. and 5% CO2 for 24 hours. […] Following incubation, the cells were washed with 1× sterile PBS and cell viability was assessed using MTS and Picogreen dsDNA assays (e.g., available from Life Technologies, located in Grand Island, N.Y.) according to manufacturer's instructions. MTS assay measures the percentage of cells alive in each well compared to the controls. These findings were validated using Picogreen dsDNA assay which calculates the amount of total cell DNA present in each well compared to the control.

AT1 cells [5] = test: as above; assay type: cell-based, human; conditions: 10 μM
Experimental: as §2

human AT1 cells = test: Cell activation study: intracellular ROS production (H2DCFDA); assay type: cell-based; conditions: positive control, 10 μg/ml
Experimental: A cell activation study was conducted to determine whether NP uptake causes oxidative stress in the cells in vitro. For example, human AT1 cells were seeded in tissue culture plates and incubated overnight as described earlier. The next day, cells were exposed to two different concentrations of each NP (250 μg/ml and 1000 μg/ml) and incubated for another 24 hours. Cells exposed to 10 μg/ml lipopolysaccharide (LPS) were considered as a positive control while cells exposed to media only served as the negative control. To detect the Intracellular Reactive Oxygen Species (ROS) production on NP exposure, cells were then washed thrice with PBS and incubated with 5 μM of 2′,7′-dichlorodihydrofluorescein diacetate (H2DCFDA) solution in PBS for 30 minutes. The cells were then washed again with PBS and fluorescence was measured at λex of 485 nm and […] using a spectrophotometer.
(§3) To study cytokine production, the concentration of interleukin-1 alpha (IL-1∞), interleukin-1 beta (IL-1β), interleukins 2, 4, 6, 8, 10, 12, 10A, and tumor necrosis factor-alpha (TNF-α) in the medium was measured using Multi-Analyte ELISAArray Kit (SA Biosciences, Frederick, Md.) according to the manufacturer's directions.

AT1 cells [6] = test: Cell activation study: cytokine ELISA; assay type: cell-based, human; conditions: 24 hours; MDNPs at 1 mg/mL; LPS positive control
Experimental: as §3
The cells stimulated using LPS (positive control) produced 0.25 ng/ml IL-6, 1.27 ng/ml IL-8, 0.24 ng/ml IL-10 and 0.11 ng/ml TNF-α inflammatory cytokines.

Row | Compound | peak shift [1] | peak shift [2] | peak shift [3] | cytocompatibility (MTS) [4] | cytocompatibility (MTS) (AT1 cells [5]) | ROS production, % of the control (human AT1 cells) [%] | IL-6 produced (AT1 cells [6]) [ng/mL] | IL-8 produced (AT1 cells [6]) [ng/mL] | IL-10 produced (AT1 cells [6]) [ng/mL] | TNF-α produced (AT1 cells [6]) [ng/mL]
1 | Nc1nc2ncc(CNc3ccc(C(=O)N[C@@H](CCC(=O)O)C(=O)O)cc3)nc2c(=O)[nH]1 [folic acid] | no dose-dependent increase in peak shift | increase in peak shift | comparatively larger peak shift | non-toxic | non-toxic | – | – | – | – | –
2 | lipopolysaccharide [LPS] | – | – | – | – | – | 425 | 0.25 | 1.27 | 0.24 | 0.11

— US10765745B2, “Multifunctional nanoparticle systems and methods for cancer diagnosis and combination therapy” (BOARD OF REGENTS, THE UNIVERSITY OF TEXAS SYSTEM, priority 2015, dated 2020)
